Measurements taken from PubChem BioAssay AID1963448 (Molecular Pharmacology Branch, DTP, NCI, 2024).
pIC50: −log10 of the molar value. Values joined by “and” are separate entries in the source; they are usually repeats but may differ in a detail not shown here. Equal values may be shown once.

System: 616215-338-R-J1-PDC complex spheroid growth, % test/control
Test: Anticancer human tumor 616215-338-R-J1-PDC patient-derived colon adenocarcinoma cell line growth inhibition [Asc]
Conditions: for viability, T/C: stronger effect = lower value
In short: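 Complex spheroids combining tumor cells with HUVEC endothelial cells and human MSCs, at 37 degrees C, 5% CO2; agents tested alone or combined, half-log dilutions from at or near clinical Cmax, or 10 microM if Cmax unknown.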

[1] = curve of first compound, second compound 0.03 µM
[2] = curve of first compound, second compound 0.0949 µM
[3] = curve of first compound, second compound 0.3 µM
[4] = curve of first compound, second compound 0.949 µM
[5] = curve of first compound, second compound 3 µM
[6] = second compound 0.03 µM, first compound 0.0316 µM
[7] = second compound 0.03 µM, first compound 0.1 µM
[8] = second compound 0.03 µM, first compound 0.316 µM
[9] = second compound 0.03 µM, first compound 1 µM
[10] = second compound 0.0949 µM, first compound 0.0316 µM
[11] = second compound 0.0949 µM, first compound 0.1 µM
[12] = second compound 0.0949 µM, first compound 0.316 µM
[13] = second compound 0.0949 µM, first compound 1 µM
[14] = second compound 0.3 µM, first compound 0.0316 µM
[15] = second compound 0.3 µM, first compound 0.1 µM
[16] = second compound 0.3 µM, first compound 0.316 µM
[17] = second compound 0.3 µM, first compound 1 µM
[18] = second compound 0.949 µM, first compound 0.0316 µM
[19] = second compound 0.949 µM, first compound 0.1 µM
[20] = second compound 0.949 µM, first compound 0.316 µM
[21] = second compound 0.949 µM, first compound 1 µM
[22] = second compound 3 µM, first compound 0.0316 µM
[23] = second compound 3 µM, first compound 0.1 µM
[24] = second compound 3 µM, first compound 0.316 µM
[25] = second compound 3 µM, first compound 1 µM
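Note: spheroids exposed to agents for seven days before readout.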
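Throughout, for viability, T/C: 100% = DMSO vehicle control viability.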

## C=C(F)C(=O)N1CCN(c2nc(OCC3CCCN3C)nc3c2CCN(c2cccc4cccc(Cl)c24)C3)CC1CC#N (stereo not drawn) + CCN1C(C(=O)NC23CCC(C(=O)O)(CC2)CC3)C(c2cccc(Cl)c2F)C2(C(=O)Nc3cc(Cl)ccc32)C12CCCCC2
[1]
  pIC50: 5.25
[2]
  pIC50: 5.31
[3]
  pIC50: 5.43
[4]
  pIC50: 5.42
[5]
  pIC50: > 7.50
[6]
  viability, T/C: 106%
[7]
  viability, T/C: 103%
[8]
  viability, T/C: 109%
[9]
  viability, T/C: 106%
Second compound 0.03 µM, first compound 3.16 µM
  viability, T/C: 101%
Second compound 0.03 µM, first compound 10 µM
  viability, T/C: 0.87%
[10]
  viability, T/C: 106%
[11]
  viability, T/C: 96.7%
[12]
  viability, T/C: 99.3%
[13]
  viability, T/C: 93.4%
Second compound 0.0949 µM, first compound 3.16 µM
  viability, T/C: 82%
Second compound 0.0949 µM, first compound 10 µM
  viability, T/C: 0.4%
[14]
  viability, T/C: 69.9%
[15]
  viability, T/C: 67.9%
[16]
  viability, T/C: 66%
[17]
  viability, T/C: 65.7%
Second compound 0.3 µM, first compound 3.16 µM
  viability, T/C: 58.2%
Second compound 0.3 µM, first compound 10 µM
  viability, T/C: 0.52%
[18]
  viability, T/C: 62.2%
[19]
  viability, T/C: 65.5%
[20]
  viability, T/C: 67.6%
[21]
  viability, T/C: 63.8%
Second compound 0.949 µM, first compound 3.16 µM
  viability, T/C: 59.9%
Second compound 0.949 µM, first compound 10 µM
  viability, T/C: 0.26%
[22]
  viability, T/C: 48.9%
[23]
  viability, T/C: 48.8%
[24]
  viability, T/C: 46.2%
[25]
  viability, T/C: 45.6%
Second compound 3 µM, first compound 3.16 µM
  viability, T/C: 46.2%
Second compound 3 µM, first compound 10 µM
  viability, T/C: 0.36%

## CCN1CCN(Cc2ccc(Nc3ncc(F)c(-c4cc(F)c5nc(C)n(C(C)C)c5c4)n3)nc2)CC1 + CCN1C(C(=O)NC23CCC(C(=O)O)(CC2)CC3)C(c2cccc(Cl)c2F)C2(C(=O)Nc3cc(Cl)ccc32)C12CCCCC2
[1]
  pIC50: < 6.00
[2]
  pIC50: < 6.00
[3]
  pIC50: < 6.00
[4]
  pIC50: < 6.00
[5]
  pIC50: 6.82
Second compound 0.03 µM, first compound 0.00316 µM
  viability, T/C: 102%
Second compound 0.03 µM, first compound 0.01 µM
  viability, T/C: 99.2%
[6]
  viability, T/C: 104%
[7]
  viability, T/C: 108%
[8]
  viability, T/C: 108%
[9]
  viability, T/C: 116%
Second compound 0.0949 µM, first compound 0.00316 µM
  viability, T/C: 93.6%
Second compound 0.0949 µM, first compound 0.01 µM
  viability, T/C: 96%
[10]
  viability, T/C: 97.2%
[11]
  viability, T/C: 80.5%
[12]
  viability, T/C: 88.2%
[13]
  viability, T/C: 75.2%
Second compound 0.3 µM, first compound 0.00316 µM
  viability, T/C: 66.2%
Second compound 0.3 µM, first compound 0.01 µM
  viability, T/C: 67%
[14]
  viability, T/C: 63.3%
[15]
  viability, T/C: 58.3%
[16]
  viability, T/C: 69.5%
[17]
  viability, T/C: 59.9%
Second compound 0.949 µM, first compound 0.00316 µM
  viability, T/C: 60.5%
Second compound 0.949 µM, first compound 0.01 µM
  viability, T/C: 66.6%
[18]
  viability, T/C: 72.1%
[19]
  viability, T/C: 68.9%
[20]
  viability, T/C: 83.6%
[21]
  viability, T/C: 52%
Second compound 3 µM, first compound 0.00316 µM
  viability, T/C: 48.2%
Second compound 3 µM, first compound 0.01 µM
  viability, T/C: 52.4%
[22]
  viability, T/C: 48.3%
[23]
  viability, T/C: 56.4%
[24]
  viability, T/C: 54.7%
[25]
  viability, T/C: 42.2%

## Cn1ncnc1[C@H]1c2n[nH]c(=O)c3cc(F)cc(c23)N[C@@H]1c1ccc(F)cc1
Compound 0.000316 µM
  viability, T/C: 93.4% and 104% and 99.2%
Compound 0.001 µM
  viability, T/C: 96.2% and 100% and 92.5%
Compound 0.00316 µM
  viability, T/C: 97.1% and 98.9% and 93.8%
Compound 0.01 µM
  viability, T/C: 99% and 106% and 100%
Compound 0.0316 µM
  viability, T/C: 95.7% and 100% and 102%
Compound 0.1 µM
  viability, T/C: 108% (2×) and 100%
Curve of compound
  pIC50: < 7.00

## O=C(c1ccc(F)c(F)c1Nc1ccc(I)cc1F)N1CC(O)([C@@H]2CCCCN2)C1
Compound 0.00316 µM
  viability, T/C: 89.5% and 99.8% and 108%
Compound 0.01 µM
  viability, T/C: 84.3% and 101% and 100%
Compound 0.0316 µM
  viability, T/C: 74.5% and 93.8% and 67.1%
Compound 0.1 µM
  viability, T/C: 54.4% and 51.2% and 15.8%
Compound 0.316 µM
  viability, T/C: 22.1% and 19.3% and 4.03%
Compound 1 µM
  viability, T/C: 1.33% and 0.76% and 3.69%
Curve of compound
  pIC50: 6.95 and 6.94 and 7.34

## C=CC(=O)N1CCN(c2nc(=O)n(-c3c(C)ccnc3C(C)C)c3nc(-c4c(O)cccc4F)c(F)cc23)C(C)C1 (stereo not drawn)
Compound 0.0316 µM
  viability, T/C: 97% and 99.6% and 107%
Compound 0.1 µM
  viability, T/C: 95.3% and 101% and 91.9%
Compound 0.316 µM
  viability, T/C: 102% and 98.2% and 97.2%
Compound 1 µM
  viability, T/C: 102% and 100% and 74.5%
Compound 3.16 µM
  viability, T/C: 106% and 109% and 52.6%
Compound 10 µM
  viability, T/C: 102% and 106% and 35.4%
Curve of compound
  pIC50: < 5.00 and 5.43

## CCN1CCN(Cc2ccc(Nc3ncc(F)c(-c4cc(F)c5nc(C)n(C(C)C)c5c4)n3)nc2)CC1 + CNC(C)C(=O)NC1CN(S(=O)(=O)c2cccc(S(=O)(=O)N3CCC4CCC(C(=O)NC(c5ccccc5)c5ccccc5)N4C(=O)C(NC(=O)C(C)NC)C3)c2)CCC2CCC(C(=O)NC(c3ccccc3)c3ccccc3)N2C1=O
Curve of first compound, second compound 0.00316 µM
  pIC50: 6.58
Curve of first compound, second compound 0.01 µM
  pIC50: 6.53
Curve of first compound, second compound 0.0316 µM
  pIC50: 6.23
Curve of first compound, second compound 0.1 µM
  pIC50: 6.36
Curve of first compound, second compound 0.316 µM
  pIC50: 6.41
Curve of first compound, second compound 1 µM
  pIC50: 6.26
Second compound 0.00316 µM, first compound 0.00316 µM
  viability, T/C: 105%
Second compound 0.00316 µM, first compound 0.01 µM
  viability, T/C: 105%
Second compound 0.00316 µM, first compound 0.0316 µM
  viability, T/C: 92.1%
Second compound 0.00316 µM, first compound 0.1 µM
  viability, T/C: 92.4%
Second compound 0.00316 µM, first compound 0.316 µM
  viability, T/C: 41.5%
Second compound 0.00316 µM, first compound 1 µM
  viability, T/C: 16%
Second compound 0.01 µM, first compound 0.00316 µM
  viability, T/C: 106%
Second compound 0.01 µM, first compound 0.01 µM
  viability, T/C: 112%
Second compound 0.01 µM, first compound 0.0316 µM
  viability, T/C: 99.2%
Second compound 0.01 µM, first compound 0.1 µM
  viability, T/C: 60.1%
Second compound 0.01 µM, first compound 0.316 µM
  viability, T/C: 58%
Second compound 0.01 µM, first compound 1 µM
  viability, T/C: 18.8%
Second compound 0.0316 µM, first compound 0.00316 µM
  viability, T/C: 100%
Second compound 0.0316 µM, first compound 0.01 µM
  viability, T/C: 114%
Second compound 0.0316 µM, first compound 0.0316 µM
  viability, T/C: 90.9%
Second compound 0.0316 µM, first compound 0.1 µM
  viability, T/C: 90%
Second compound 0.0316 µM, first compound 0.316 µM
  viability, T/C: 87.9%
Second compound 0.0316 µM, first compound 1 µM
  viability, T/C: 19.5%
Second compound 0.1 µM, first compound 0.00316 µM
  viability, T/C: 107%
Second compound 0.1 µM, first compound 0.01 µM
  viability, T/C: 105%
Second compound 0.1 µM, first compound 0.0316 µM
  viability, T/C: 102%
Second compound 0.1 µM, first compound 0.1 µM
  viability, T/C: 67.7%
Second compound 0.1 µM, first compound 0.316 µM
  viability, T/C: 73.3%
Second compound 0.1 µM, first compound 1 µM
  viability, T/C: 18.9%
Second compound 0.316 µM, first compound 0.00316 µM
  viability, T/C: 111%
Second compound 0.316 µM, first compound 0.01 µM
  viability, T/C: 107%
Second compound 0.316 µM, first compound 0.0316 µM
  viability, T/C: 90.4%
Second compound 0.316 µM, first compound 0.1 µM
  viability, T/C: 61.8%
Second compound 0.316 µM, first compound 0.316 µM
  viability, T/C: 61.3%
Second compound 0.316 µM, first compound 1 µM
  viability, T/C: 33.3%
Second compound 1 µM, first compound 0.00316 µM
  viability, T/C: 100%
Second compound 1 µM, first compound 0.01 µM
  viability, T/C: 111%
Second compound 1 µM, first compound 0.0316 µM
  viability, T/C: 101%
Second compound 1 µM, first compound 0.1 µM
  viability, T/C: 101%
Second compound 1 µM, first compound 0.316 µM
  viability, T/C: 67.8%
Second compound 1 µM, first compound 1 µM
  viability, T/C: 31.3%
